From patent US9062046B2, “Substituted imidazoquinoline derivatives as kinase inhibitors” (Piramal Enterprises Limited, priority 2011, dated 2015)

Assays:
[1] = test system: A2780 (ovarian cell line); test: Cytotoxicity assay (propidium iodide assay), A2780; format: cell-based; conditions: A2780 cells, 48 h treatment; for IC50 / inhibition at 1 µM: Homo sapiens
Outline: (§1)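 A2780 and PC3 cells, 3000/well, were treated with compound for 48 h after 18-24 h attachment. After washing, propidium iodide 7 μg/ml was added, followed by freeze-thaw at −70 °C and a fluorescence read. Viability was taken relative to untreated wells, with IC50 derived from the curves.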

p110α = molecular target: T1, p110α (Homo sapiens, UniProt P42336); test: p110α radioactive lipid kinase assay (PI3Kα); format: biochemical; conditions: 25 μM ATP, 2 h at RT, read-out: IC50 in μM (PI3 kinase activity)
T1 construct: purchased Upstate Millipore
Description: Protocol for Kinase Assay (PI3Kα)
p110α Radioactive Lipid Kinase Assay
The assay was designed as in the reference, Journal of Biomolecular Screening, 2002, Vol. 7, No. 5, 441-450, the disclosure of which is incorporated by reference for the teaching of the assay.
The p110α biochemical assay was performed using a radioactive assay measuring the incorporation of ^32P into the p110α substrate, phosphatidylinsoitol (PI). For the generation of IC50 curves, the reaction was performed in a 96-well MaxiSorp plates. Plates were pre-coated with 4 μg/well of a 1:1 ratio of phosphatidylinositol (PI: Avanti #840042C) and phosphatidylserine (PS: Avanti #840032C) diluted in CHCl3. Equal amount of p110α (Upstate Millipore) protein was added to each well, containing reaction buffer (50 mM MOPSO pH7.0, 100 mM NaCl, 4 mM MgCl2, 0.1% (w/v) BSA) whereas, for negative control, only reaction buffer was added. Test compounds (referred to by example nos. in the following table 1) dissolved in DMSO were treated at nine-point dose responses. Reactions were initiated by the addition of 25 μM ATP solution containing 50 μCi/ml [γ-^32P]-ATP and incubated at RT for 2 h with gentle shaking. Reactions were finally terminated by the addition of 50 mM EDTA stock solution. Plates were washed 3 times with TBS buffer. The plates were air dried, Microscint 0 (Perkin Elmer) was added to each well and the plates were sealed. The radioactivity incorporated into the immobilized PI substrate was determined with Top Count (Perkin Elmer). Inhibition was calculated using the following equation: % inhibition=(Dcpm−Tcpm)/(Dcpm)×100 • Tcpm=^32P-cpm in presence of test compounds • Dcpm=^32P-cpm in DMSO control (enzyme control deducted) Results: IC50 values of test compounds for PI3 kinase activity is indicated in Table 1.

PC3 (prostate cell line) = test: Cytotoxicity assay (propidium iodide assay), PC3; format: cell-based; conditions: PC3 cells, 48 h treatment; for IC50 / inhibition at 1 µM: Homo sapiens, PC-3
Outline: as §1

T1 sequence (P42336 whole entry, species assumed): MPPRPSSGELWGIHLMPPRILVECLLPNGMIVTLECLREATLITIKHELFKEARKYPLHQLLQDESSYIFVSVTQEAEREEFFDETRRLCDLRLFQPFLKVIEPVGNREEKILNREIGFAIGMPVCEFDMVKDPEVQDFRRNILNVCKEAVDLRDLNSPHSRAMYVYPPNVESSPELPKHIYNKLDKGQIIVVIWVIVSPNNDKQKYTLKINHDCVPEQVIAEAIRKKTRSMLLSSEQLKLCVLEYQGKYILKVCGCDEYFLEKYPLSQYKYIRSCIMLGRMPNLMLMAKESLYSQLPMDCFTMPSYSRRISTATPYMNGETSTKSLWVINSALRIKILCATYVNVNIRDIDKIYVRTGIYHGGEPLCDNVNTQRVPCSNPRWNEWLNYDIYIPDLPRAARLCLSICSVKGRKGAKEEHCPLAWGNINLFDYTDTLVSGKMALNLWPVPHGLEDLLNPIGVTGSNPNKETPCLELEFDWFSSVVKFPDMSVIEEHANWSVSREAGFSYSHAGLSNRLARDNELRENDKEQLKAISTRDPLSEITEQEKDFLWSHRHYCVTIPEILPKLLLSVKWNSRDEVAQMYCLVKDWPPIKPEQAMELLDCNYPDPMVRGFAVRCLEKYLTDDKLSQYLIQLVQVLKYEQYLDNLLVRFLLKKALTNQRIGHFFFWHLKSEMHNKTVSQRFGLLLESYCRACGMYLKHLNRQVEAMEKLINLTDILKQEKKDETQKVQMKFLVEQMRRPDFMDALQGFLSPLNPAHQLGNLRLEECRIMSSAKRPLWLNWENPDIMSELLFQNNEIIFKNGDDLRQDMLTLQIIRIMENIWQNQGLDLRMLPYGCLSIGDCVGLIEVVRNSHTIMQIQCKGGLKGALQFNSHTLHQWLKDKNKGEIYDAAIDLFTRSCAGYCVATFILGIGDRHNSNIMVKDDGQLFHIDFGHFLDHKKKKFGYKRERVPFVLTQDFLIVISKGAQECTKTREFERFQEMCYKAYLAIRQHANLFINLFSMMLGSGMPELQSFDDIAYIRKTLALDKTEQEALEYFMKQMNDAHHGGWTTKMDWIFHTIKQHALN
T1 sequence (P27986 whole entry partner, species assumed): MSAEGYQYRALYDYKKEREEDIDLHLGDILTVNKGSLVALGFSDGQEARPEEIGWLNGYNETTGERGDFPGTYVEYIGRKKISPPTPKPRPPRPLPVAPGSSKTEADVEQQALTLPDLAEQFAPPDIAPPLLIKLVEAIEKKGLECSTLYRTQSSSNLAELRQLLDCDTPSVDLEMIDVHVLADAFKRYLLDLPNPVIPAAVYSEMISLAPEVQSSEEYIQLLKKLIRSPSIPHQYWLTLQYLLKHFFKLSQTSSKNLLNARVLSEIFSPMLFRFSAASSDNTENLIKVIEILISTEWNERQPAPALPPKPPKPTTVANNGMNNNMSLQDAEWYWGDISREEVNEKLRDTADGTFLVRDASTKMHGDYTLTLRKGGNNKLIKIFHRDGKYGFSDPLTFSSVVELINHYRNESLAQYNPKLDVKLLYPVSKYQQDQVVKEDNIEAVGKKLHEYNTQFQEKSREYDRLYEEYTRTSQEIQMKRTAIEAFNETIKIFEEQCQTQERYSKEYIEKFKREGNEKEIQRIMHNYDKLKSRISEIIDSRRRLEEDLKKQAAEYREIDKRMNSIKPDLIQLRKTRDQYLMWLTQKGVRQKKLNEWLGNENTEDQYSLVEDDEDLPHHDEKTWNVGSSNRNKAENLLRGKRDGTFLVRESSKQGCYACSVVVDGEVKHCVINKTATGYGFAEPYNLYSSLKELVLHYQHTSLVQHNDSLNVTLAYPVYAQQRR

Row | Compound | IC50 [1] | IC50 (PC3 (prostate cell line)) | inhibition at 1 µM [1] | inhibition at 1 µM (PC3 (prostate cell line)) | other results
1 | Cn1c(=NC#N)n(-c2ccc(C(C)(C)C#N)nc2)c2c3cc(-c4cnc(N)c(C(F)(F)F)c4)ccc3ncc21 [Example 5, N-(8-(6-amino-5-(trifluoromethyl)pyridin-3-yl)-1-(6-(2-cyanopropan-2-yl)pyridin-3-yl)-3-methyl-1H-imidazo[4,5-c]quinolin-2(3H)-ylidene)cyanamide] | ≤ 0.5 µM | ≤ 0.5 µM | – | – | IC50 (p110α): ≤ 0.01 µM
2 | Cn1c(=NC#N)n(-c2ccc(C(C)(C)C#N)nc2)c2c3cc(-c4cncc(C(F)(F)F)c4)ccc3ncc21 [Example 70] | ≤ 0.5 µM | ≤ 0.5 µM | – | – | IC50 (p110α): ≤ 0.01 µM
3 | Cn1c(=NC#N)n(-c2ccc(C(C)(C)C#N)nc2)c2c3cc(-c4ccc5[nH]ccc5c4)ccc3ncc21 [Example 73, N-(1-(6-(2-cyanopropan-2-yl)pyridin-3-yl)-8-(1H-indol-5-yl)-3-methyl-1H-imidazo[4,5-c]quinolin-2(3H)-ylidene)cyanamide] | ≤ 0.5 µM | ≤ 0.5 µM | – | – | IC50 (p110α): ≤ 0.01 µM
4 | Cn1c(=NC#N)n(-c2ccc(C(C)(C)C#N)nc2)c2c3cc(-c4cnc(N)nc4)ccc3ncc21 [Example 75, N-(8-(2-aminopyrimidin-5-yl)-1-(6-(2-cyanopropan-2-yl)pyridin-3-yl)-3-methyl-1H-imidazo[4,5-c]quinolin-2(3H)-ylidene)cyanamide] | ≤ 0.5 µM | ≤ 0.5 µM | – | – | IC50 (p110α): 0.01 to 1 µM
5 | Cn1c(=NC#N)n(-c2ccc(C(C)(C)C#N)nc2)c2c3cc(-c4ccc(N5CCCCC5)nc4)ccc3ncc21 [Example 76, N-(1-(6-(2-cyanopropan-2-yl)pyridin-3-yl)-3-methyl-8-(6-(piperidin-1-yl)pyridin-3-yl)-1H-imidazo[4,5-c]quinolin-2(3H)-ylidene)cyanamide] | ≤ 0.5 µM | 0.5 to 2 µM | – | – | IC50 (p110α): 0.01 to 1 µM
6 | Cn1c(=NC#N)n(-c2ccc(C(C)(C)C#N)nc2)c2c3cc(-c4ccnc(N5CCOCC5)c4Cl)ccc3ncc21 [Example 121, N-(8-(3-chloro-2-morpholinopyridin-4-yl)-1-(6-(2-cyanopropan-2-yl)pyridin-3-yl)-3-methyl-1H-imidazo[4,5-c]quinolin-2(3H)-ylidene)cyanamide] | – | – | < 30% | < 30% | –
7 | Cn1c(=NC#N)n(-c2ccc(C(C)(C)C#N)nc2)c2c3cc(-c4cnc(NC(=O)OC(C)(C)C)c(C(F)(F)F)c4)ccc3ncc21 [Example 122, tert-butyl 5-(2-(cyanoimino)-1-(6-(2-cyanopropan-2-yl)pyridin-3-yl)-3-methyl-2,3-dihydro-1H-imidazo[4,5-c]quinolin-8-yl)-3-(trifluoromethyl)pyridin-2-ylcarbamate] | – | – | ≥ 70% | 30 to 70% | –
8 | COc1ccc(-n2c(=NC#N)n(C)c3cnc4ccc(-c5cnc(NC(=O)OC(C)(C)C)c(C(F)(F)F)c5)cc4c32)cn1 [Example 123, tert-butyl 5-(2-(cyanoimino)-1-(6-methoxypyridin-3-yl)-3-methyl-2,3-dihydro-1H-imidazo[4,5-c]quinolin-8-yl)-3-(trifluoromethyl)pyridin-2-ylcarbamate] | ≤ 0.5 µM | ≤ 0.5 µM | – | – | –
9 | COc1ncc(-c2ccc3ncc4c(c3c2)n(-c2ccc(C(C)(C)C#N)cc2)c(=NC#N)n4C)cc1NS(=O)(=O)c1ccccc1 [Example 124, N-(5-(2-(cyanoimino)-1-(4-(2-cyanopropan-2-yl)phenyl)-3-methyl-2,3-dihydro-1H-imidazo[4,5-c]quinolin-8-yl)-2-methoxypyridin-3-yl)benzenesulfonamide] | – | – | ≥ 70% | ≥ 70% | –
10 | COc1ncc(-c2ccc3ncc4c(c3c2)n(-c2ccc(C(C)(C)C#N)nc2)c(=NC#N)n4C)cc1NS(C)(=O)=O [Example 126, N-(5-(2-(cyanoimino)-1-(6-(2-cyanopropan-2-yl)pyridin-3-yl)-3-methyl-2,3-dihydro-1H-imidazo[4,5-c]quinolin-8-yl)-2-methoxypyridin-3-yl)methane sulfonamide] | ≤ 0.5 µM | ≤ 0.5 µM | – | – | –
11 | COc1ncc(-c2ccc3ncc4c(c3c2)n(-c2ccc(C(C)(C)C#N)cc2)c(=NC#N)n4C)cc1NS(C)(=O)=O [Example 127, N-(5-(2-(cyanoimino)-1-(4-(2-cyanopropan-2-yl)phenyl)-3-methyl-2,3-dihydro-1H-imidazo[4,5-c]quinolin-8-yl)-2-methoxypyridin-3-yl)methanesulfonamide] | – | – | ≥ 70% | 30 to 70% | –
12 | CC(=O)Nc1cc(C)c(-c2ccc3ncc4c(c3c2)n(-c2ccc(C(C)(C)C#N)nc2)c(=NC#N)n4C)cn1 [Example 128, N-(5-(2-(cyanoimino)-1-(6-(2-cyanopropan-2-yl)pyridin-3-yl)-3-methyl-2,3-dihydro-1H-imidazo[4,5-c]quinolin-8-yl)-4-methylpyridin-2-yl)acetamide] | – | – | 30 to 70% | < 30% | –
13 | CN(C)c1ncc(-c2ccc3ncc4c(c3c2)n(-c2ccc(C(C)(C)C#N)cc2)c(=NC#N)n4C)cc1C(F)(F)F [Example 129, N-(1-(4-(2-cyanopropan-2-yl)phenyl)-8-(6-(dimethylamino)-5-(trifluoromethyl)pyridin-3-yl)-3-methyl-1H-imidazo[4,5-c]quinolin-2(3H)-ylidene) cyanamide] | – | – | – | – | % Inhibition at 1 μM, A2780 [1]: +++ (≧70%); % Inhibition at 1 μM, PC3 (PC3 (prostate cell line)): ++ (≧30% upto 70%)
14 | CC(=O)N(C(C)=O)c1ncc(-c2ccc3ncc4c(c3c2)n(-c2ccc(C(C)(C)C#N)cc2)c(=NC#N)n4C)cc1C(F)(F)F [Example 131, N-acetyl-N-(5-(2-(cyanoimino)-1-(4-(2-cyanopropan-2-yl)phenyl)-3-methyl-2,3-dihydro-1H-imidazo[4,5-c]quinolin-8-yl)-3-(trifluoromethyl)pyridin-2-yl)acetamide] | – | – | 30 to 70% | 30 to 70% | –
15 | CC(=O)N(C(C)=O)c1ncc(-c2ccc3ncc4c(c3c2)n(-c2ccc(C(C)(C)C#N)nc2)c(=NC#N)n4C)cc1C(F)(F)F [Example 132, N-acetyl-N-(5-(2-(cyanoimino)-1-(6-(2-cyanopropan-2-yl)pyridin-3-yl)-3-methyl-2,3-dihydro-1H-imidazo[4,5-c]quinolin-8-yl)-3-(trifluoromethyl)pyridin-2-yl)acetamide] | – | – | < 30% | < 30% | –
16 | COc1ncc(-c2ccc3ncc4c(c3c2)n(-c2ccc(C(C)(C)C#N)cc2)c(=NC#N)n4C)cc1NS(=O)(=O)c1ccc(F)cc1F [Example 135, N-(5-(2-(cyanoimino)-1-(4-(2-cyanopropan-2-yl)phenyl)-3-methyl-2,3-dihydro-1H-imidazo[4,5-c]quinolin-8-yl)-2-methoxypyridin-3-yl)-2,4-difluorobenzenesulfonamide] | – | – | ≥ 70% | ≥ 70% | –
17 | CCCC(CCC)C(=O)Nc1ncc(-c2ccc3ncc4c(c3c2)n(-c2ccc(C(C)(C)C#N)nc2)c(=NC#N)n4C)cc1C(F)(F)F [Example 136, N-(5-(2-(cyanoimino)-1-(6-(2-cyanopropan-2-yl)pyridin-3-yl)-3-methyl-2,3-dihydro-1H-imidazo[4,5-c]quinolin-8-yl)-3-(trifluoromethyl)pyridin-2-yl)-2-propylpentanamide] | – | – | ≥ 70% | 30 to 70% | –
18 | COC(=O)c1cc(-c2ccc3ncc4c(c3c2)n(-c2ccc(C(C)(C)C#N)nc2)c(=NC#N)n4C)cnc1N [Example 137, Methyl 2-amino-5-(2-(cyanoimino)-1-(6-(2-cyanopropan-2-yl)pyridin-3-yl)-3-methyl-2,3-dihydro-1H-imidazo[4,5-c]quinolin-8-yl)nicotinate] | ≤ 0.5 µM | ≤ 0.5 µM | – | – | –
19 | Cn1c(=NC#N)n(-c2ccc(C(C)(C)C#N)nc2)c2c3cc(-c4cnc(NCc5ccccc5)c(C(F)(F)F)c4)ccc3ncc21 [Example 138, N-(8-(6-(benzylamino)-5-(trifluoromethyl)pyridin-3-yl)-1-(6-(2-cyanopropan-2-yl)pyridin-3-yl)-3-methyl-1H-imidazo[4,5-c]quinolin-2(3H)-ylidene)cyanamide] | ≤ 0.5 µM | ≤ 0.5 µM | – | – | –
20 | N-(1-(6-methoxypyridin-3-yl)-3-methyl-8-(4-(trifluoromethyl)phenyl)-1H-imidazo[4,5-c]quinolin-2(3H)-ylidene)cyanamide [Example 43] | – | – | – | – | % Inhibition at 1 μM, A2780 [1]: + (<30%); % Inhibition at 1 μM, PC3 (PC3 (prostate cell line)): + (<30%)
